Measurements published in patent publication US7645881B2, “Methods for treating hepatitis C” (PTC Therapeutics, Inc., priority 2004, dated 2010).

How the values were obtained:
HCV replicon = assay: microbe, parasite or virus in culture; assay type: cell-based; conditions: Hepatitis C virus, 48 h, read-out: Replicon IC50s μM

Structure (SMILES) | melting point [°C] | IC50 (HCV replicon) [µM]
Nc1c(C(=O)N2CCOCC2)sc2nc3c(cc12)CCCCC3 [Compound 1] | 203 to 204 | > 2
CC(C)(C)c1cc(C(F)(F)F)c2c(N)c(C(N)=O)sc2n1 [Compound 2] |  | > 2
CCc1c(C)nc2sc(C(=O)OC(C)(C)C)c(N)c2c1C [Compound 3, tert-Butyl 3-amino-5-ethyl-4,6-dimethylthieno[2,3-B]pyridine-2-carboxylate] | 135 to 136 | 0.5 to 2
CC1(C)Cc2c(c(N3CCOCC3)nc3sc(C(N)=O)c(N)c23)CO1 [Compound 4] |  | > 2
CCc1c(C)nc2sc(-c3nnc(-c4ccccc4)o3)c(N)c2c1C [Compound 6, 5-ethyl-4,6-dimethyl-2-(5-phenyl-[1,3,4]oxadiazol-2-yl)-thieno[2,3-b]pyridin-3-yl amine] | 306 to 307 | 0.5 to 2
Cc1cccc(-c2nnc(-c3sc4nc(C)c(C)c(C)c4c3N)o2)c1 [Compound 7] | 268 to 270 | 0.5 to 2
Cc1nc2sc(-c3nnc(-c4cccc(F)c4)o3)c(N)c2c(C)c1C [Compound 8] | 300 to 302 | 0.5 to 2
Cc1nc2sc(-c3nnc(-c4ccc(Cl)s4)o3)c(N)c2c(C)c1C [Compound 9] | 284 to 286 | 0.5 to 2
Cc1nc2sc(-c3nnc(-c4ccc(F)cc4)o3)c(N)c2c(C)c1C [Compound 10] | 320 to 322 | 0.5 to 2
Nc1c(C(=O)Nc2ccccc2)sc2nc3c(cc12)CCCCC3 [Compound 28] |  | > 2
Cc1cc(-c2cccs2)c2c(N)c(C#N)sc2n1 [Compound 30] |  | > 2
CC(C)(C)OC(=O)c1sc2nc3c(c(-c4cccc(F)c4F)c2c1N)CCCCC3 [Compound 31] |  | > 2
CC(C)(C)OC(=O)c1sc2nc3c(c(-c4ccco4)c2c1N)CCCC3 [Compound 32] |  | > 2
CC(C)(C)OC(=O)c1sc2nc3c(c(-c4ccco4)c2c1N)CCC3 [Compound 33] |  | > 2
CC(C)(C)OC(=O)c1sc2nc3c(c(-c4cccs4)c2c1N)CCCC3 [Compound 34] |  | > 2
CCc1c(C)nc2sc(C(=O)OC(C)(C)C)c(-c3cccc(C#N)c3)c2c1C [Compound 36] |  | > 2
CCc1c(C)nc2sc(C(=O)OC(C)(C)C)c(-c3ccc(OC)cc3)c2c1C [Compound 37, t-butyl 5-ethyl-3-(4-methoxy-phenyl)-4,6-dimethyl-thieno[2,3-b]pyridine-2-carboxylate] |  | > 2
Cc1cc(CO)c2c3c(sc2n1)C(=O)NC(c1ccccc1)N3 (stereo not drawn) [Compound 38, 4-hydroxymethyl-2-methyl-6-phenyl-6,7-dihydro-5H-9-thia-1,5,7-triaza-fluoren-8-one] |  | > 2
CCc1c(C)nc2sc(C(=O)N3CCCCC3)c(-c3ccc(OC)cc3)c2c1C [Compound 41] |  | > 2
CCc1c(C)nc2sc(C(=O)NCc3ccccc3)c(-c3ccc(OC)cc3)c2c1C [Compound 44] |  | > 2
Nc1c(C(=O)Nc2ccc(Br)cc2)sc2nc3c(c(-c4ccco4)c12)CCCCC3 [Compound 51] |  | > 2
CCc1c(C)nc2sc(C(=O)SC(C)(C)C)c(N)c2c1C [Compound 56] |  | > 2
COc1ccc(Nc2sc3nc4c(c(-c5cccs5)c3c2C#N)CCCCC4)cc1 [Compound 64] |  | > 2
Cc1nc2sc(C(=O)OC(C)(C)C)c(N)c2c(C)c1OCCN1CCCN(C)CC1 [Compound 68] |  | 0.5 to 2
Cc1nc2sc(C(=O)OC(C)(C)C)c(N)c2c(C)c1OCCN1CCN(CCCN(C)C)CC1 [Compound 69] |  | 0.5 to 2
Cc1nc2sc(C(=O)OC(C)(C)C)c(N)c2c(C)c1OCCN1CCCCC1 [Compound 70] |  | 0.5 to 2
Cc1nc2sc(C(=O)OC(C)(C)C)c(N)c2c(C)c1OCCN(C)C [Compound 72] |  | > 2
Cc1nc2sc(C(=O)OC(C)(C)C)c(N)c2c(C)c1OCCN(C)CCN(C)C [Compound 73] |  | 0.5 to 2
CCN1CCN(CCOc2c(C)nc3sc(C(=O)OC(C)(C)C)c(N)c3c2C)CC1 [Compound 74] |  | > 2
